Results reported in patent US8173689B2 (Novartis AG, priority 2006, dated 2012).
Like-named read-outs stand apart in the source and are kept apart here.

Experiments:
[1] = molecular target: T1, cytoplasmic domain of the human CSF-1R (Homo sapiens, UniProt P07333); assay: In vitro kinase assay for colony stimulating factor-1 receptor (AlphaScreen); assay type: biochemical; details: tested at about 1 μM, read-out: CSF-1R percent inhibition
T1 construct: Recombinant protein corresponding to the cytoplasmic domain of the human CSF-1R; purchased Invitrogen Corporation, Carlsbad, Calif; PV3249
T1 sequence (P07333 539-972 limits assumed): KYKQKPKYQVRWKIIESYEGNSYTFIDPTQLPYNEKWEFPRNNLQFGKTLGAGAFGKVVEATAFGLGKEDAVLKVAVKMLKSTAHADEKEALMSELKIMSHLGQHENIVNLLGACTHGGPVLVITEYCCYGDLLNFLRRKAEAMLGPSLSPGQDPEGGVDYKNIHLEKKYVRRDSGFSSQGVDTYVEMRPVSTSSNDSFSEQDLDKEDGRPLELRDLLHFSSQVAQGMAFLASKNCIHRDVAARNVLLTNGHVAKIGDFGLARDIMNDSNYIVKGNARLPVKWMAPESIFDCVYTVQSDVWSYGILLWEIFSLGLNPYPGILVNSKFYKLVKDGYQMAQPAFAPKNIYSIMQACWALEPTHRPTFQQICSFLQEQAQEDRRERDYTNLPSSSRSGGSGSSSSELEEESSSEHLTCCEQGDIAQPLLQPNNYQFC
How it was run: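 Test compounds, serially diluted threefold starting at 25 μM, were mixed with Hepes buffer (pH 7.5, Mg2+/Mn2+, DTT, BSA, Tween 80) containing 1 μM ATP. Recombinant kinase was present at 4 nM. After stopping, beads were added and plates were read the next day by AlphaScreen.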

[2] = molecular target: T2, full-length human CSF-1R receptor (Homo sapiens, UniProt P07333); assay: In vitro inhibition of CSF-1R receptor tyrosine phosphorylation in transfected HEK293H cells stimulated with MCSF; assay type: cell-based; details: HEK293-H, tested at about 1 μM; HEK293H cells; read-out: pCSF1R percent inhibition
T2 construct: transfected with the full-length human CSF-1R receptor cloned in house; expressed in transfected cells; host or cells: HEK293H (Invitrogen Cat. #11631017)
T2 sequence (P07333 20-972): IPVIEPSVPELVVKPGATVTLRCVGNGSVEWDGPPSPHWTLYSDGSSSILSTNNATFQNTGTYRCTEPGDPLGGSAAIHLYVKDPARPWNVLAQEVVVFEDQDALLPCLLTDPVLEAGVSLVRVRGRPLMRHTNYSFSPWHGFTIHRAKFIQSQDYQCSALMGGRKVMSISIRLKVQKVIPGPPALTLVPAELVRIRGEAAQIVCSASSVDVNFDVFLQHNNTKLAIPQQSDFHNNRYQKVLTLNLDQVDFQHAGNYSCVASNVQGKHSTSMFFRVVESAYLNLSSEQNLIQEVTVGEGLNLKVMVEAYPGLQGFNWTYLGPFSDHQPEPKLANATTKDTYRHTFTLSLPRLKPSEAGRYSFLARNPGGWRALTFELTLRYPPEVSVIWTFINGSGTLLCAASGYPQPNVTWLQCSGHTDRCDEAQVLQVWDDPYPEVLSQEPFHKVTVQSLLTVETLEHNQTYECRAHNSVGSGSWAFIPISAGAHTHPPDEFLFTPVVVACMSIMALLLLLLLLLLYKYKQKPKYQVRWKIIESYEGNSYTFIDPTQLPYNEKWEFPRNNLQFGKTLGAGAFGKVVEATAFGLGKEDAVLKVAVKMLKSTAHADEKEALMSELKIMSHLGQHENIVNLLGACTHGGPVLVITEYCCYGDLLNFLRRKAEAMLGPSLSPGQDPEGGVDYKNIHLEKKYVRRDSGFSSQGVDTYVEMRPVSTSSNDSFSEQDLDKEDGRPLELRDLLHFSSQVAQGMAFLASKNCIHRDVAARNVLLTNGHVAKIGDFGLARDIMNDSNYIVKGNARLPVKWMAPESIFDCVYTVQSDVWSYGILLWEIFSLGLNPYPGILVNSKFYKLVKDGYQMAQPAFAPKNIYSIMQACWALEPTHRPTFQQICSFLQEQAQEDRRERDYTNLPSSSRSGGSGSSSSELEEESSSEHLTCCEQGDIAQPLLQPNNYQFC
Method: The lysate was then transferred to total CSF-1R antibody coated 96-well plates that had already been blocked with 3% Blocker A from Mesoscale discovery (MSD) for 2 hours and washed afterwards. Lysates were incubated overnight at 4° C. and the plates were then washed 4× with MSD Tris Wash Buffer. […] The plates were read on the Sector 6000 instrument (MSD). Raw data was imported in Abase and EC50s calculated with XL-fit data analysis software.

kinase domain of PDGFRβ = molecular target: T3, kinase domain of PDGFRβ (Homo sapiens, UniProt P09619); assay: Inhibition of PDGFRb kinase signaling in an in vitro biochemical assay (alphascreen); details: tested at about 1 μM, read-out: PDGFRβ percent inhibition
T3 construct: The kinase domain of PDGFRβ was assayed in 50 mM Hepes; purchased Invitrogen P3082
T3 sequence (P09619 600-962 limits assumed): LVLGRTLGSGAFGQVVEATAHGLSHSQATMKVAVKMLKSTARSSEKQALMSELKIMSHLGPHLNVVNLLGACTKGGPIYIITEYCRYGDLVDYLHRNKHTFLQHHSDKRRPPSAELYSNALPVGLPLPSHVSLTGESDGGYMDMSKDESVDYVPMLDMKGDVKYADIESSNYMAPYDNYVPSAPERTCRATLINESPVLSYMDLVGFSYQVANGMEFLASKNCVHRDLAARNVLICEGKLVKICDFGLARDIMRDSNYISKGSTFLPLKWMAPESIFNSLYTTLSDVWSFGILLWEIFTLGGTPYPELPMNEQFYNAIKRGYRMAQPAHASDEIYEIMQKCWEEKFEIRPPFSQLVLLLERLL

[3] = tested on: MNFS60 (murine AML cells); assay: Cell viability assay in MCSF dependent MNFS60 cells (Cell Titer Glo); assay type: cell-based; details: Mus musculus, tested at about 1 μM, read-out: M-NFS-60 CP percent inhibition
How it was run: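 Three-fold serial compound dilutions, prepared in DMSO at 500× the final level, were applied alongside MCSF (final 10 ng/ml). Incubation lasted 72 hrs (37° C., 5% CO2) before CellTiter-Glo addition. Triplicate points were curve-fitted for EC50.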

kinase domain of cKIT = molecular target: T4, kinase domain of cKIT (Homo sapiens, UniProt P10721); assay: Inhibition of cKIT kinase signaling in an in vitro biochemical assay (alphascreen); details: tested at about 1 μM, read-out: cKit percent inhibition
T4 construct: The kinase domain of cKIT was assayed in 50 mM Hepes; purchased Upstate 14-559
T4 sequence (P10721 589-937 limits assumed): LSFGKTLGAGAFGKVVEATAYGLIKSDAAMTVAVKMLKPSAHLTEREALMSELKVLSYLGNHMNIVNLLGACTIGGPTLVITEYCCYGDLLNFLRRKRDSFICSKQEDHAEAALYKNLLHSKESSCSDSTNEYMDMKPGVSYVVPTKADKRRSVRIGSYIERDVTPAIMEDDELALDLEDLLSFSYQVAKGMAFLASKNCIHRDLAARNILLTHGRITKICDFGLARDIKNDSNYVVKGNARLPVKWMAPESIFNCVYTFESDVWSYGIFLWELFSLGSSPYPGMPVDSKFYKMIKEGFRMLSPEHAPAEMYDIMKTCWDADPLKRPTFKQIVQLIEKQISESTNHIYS

SMILES | inhibition at 1 µM [1] | inhibition at 1 µM [2] | inhibition at 1 µM (kinase domain of PDGFRβ) | inhibition at 1 µM ([3]; MNFS60 cells) | inhibition at 1 µM ([1]; compounds of Table 3) | inhibition at 1 µM (kinase domain of cKIT; compounds of Table 3) | inhibition at 1 µM (kinase domain of PDGFRβ; compounds of Table 3) | inhibition at 1 µM ([3]; compounds of Table 3) | inhibition at 1 µM (kinase domain of cKIT) | inhibition at 1 µM ([3]; MCSF dependent MNFS60 cells)
CNC(=O)c1cc(Oc2ccc3nc(Nc4ccc(OC)cc4OC)oc3c2)ccn1 [Compound 28, 4-[2-(2,4-Dimethoxy-phenyl-amino)-benzooxazol-6-yl-oxy]-pyridine-2-carboxylic acid methylamide] | 99% | 88% | 98% | 98% | – | – | – | – | – | –
CNC(=O)c1cc(Oc2ccc3nc(NCc4ccccc4F)oc3c2)ccn1 [Compound 16, 4-[2-(2-Fluoro-benzylamino)-benzooxazol-6-yloxy]-pyridin-2-carboxylic acid methylamide] | 99% | 81% | 20% | 25% | – | – | – | – | – | –
COc1cc2nccc(Oc3ccc4nc(N[C@H](C)c5ccccc5)oc4c3)c2cc1OC [Compound 14, [6-(6,7-Dimethoxy-quinolin-4-yloxy)-benzooxazol-2-yl]-((R)-1-phenyl-ethyl)-amine] | 99% | 71% | 85% | 56% | – | – | – | – | – | –
CC(=O)Nc1cc(Oc2ccc3nc(NCC4CCCCC4)oc3c2)ccn1 [Compound 34, N-{4-[2-(Cyclohexylmethyl-amino)-benzooxazol-6-yloxy]-pyridin-2-yl}-acetamide] | 99% | 65% | 89% | 68% | – | – | – | – | – | –
CNC(=O)c1cc(Oc2ccc3nc(N[C@H]4CCCC[C@@H]4O)sc3c2)ccn1 [Compound 137, 4-[2-((1S,2S)-2-Hydroxy-cyclohexylamino)-benzothiazol-6-yloxy]-pyridine-2-carboxylic acid methylamide] | 100% | 98% | – | 100% | – | – | – | – | – | –
CNC(=O)c1cc(Oc2ccc3nc(NCc4ccccc4)oc3c2)ccn1 [Compound 41, 4-(2-Benzylamino-benzooxazol-6-yloxy)-pyridine-2-carboxylic acid methylamide] | 100% | 94% | 30% | 100% | – | – | – | – | – | –
CNC(=O)c1cc(Oc2ccc3nc(Nc4ccc5c(c4)OCCO5)oc3c2)ccn1 [Compound 5, 4-[2-(2,3-Dihydro-benzo-[1,4]dioxin-6-ylamino)-benzooxazol-6-yloxy]-pyridin-2-carboxylic acid methylamide] | 99% | 93% | – | 100% | – | – | – | – | – | –
CNC(=O)c1cc(Oc2ccc3nc(NCc4ccc(Cl)cc4Cl)oc3c2)ccn1 [Compound 9, 4-[2-(2,4-Dichloro-benzylamino)-benzooxazol-6-yloxy]-pyridin-2-carboxylic acid methylamide] | 99% | 75% | – | 58% | – | – | – | – | – | –
CNC(=O)c1cc(Oc2ccc3nc(NCc4ccccc4Cl)oc3c2)ccn1 [Compound 8, 4-[2-(2-Chloro-benzylamino)-benzooxazol-6-yloxy]-pyridin-2-carboxylic acid methylamide] | 99% | 92% | – | 60% | – | – | – | – | – | –
CNC(=O)c1cc(Oc2ccc3nc(N[C@@H](C)c4ccccc4)oc3c2)ccn1 [Compound 7, 4-[2-((S)-1-Phenyl-ethylamino)-benzooxazol-6-yloxy]-pyridin-2-carboxylic acid methylamide] | 94% | 21% | – | 17% | – | – | – | – | – | –
CNC(=O)c1cc(Oc2ccc3nc(N[C@H](C)c4ccccc4)oc3c2)ccn1 [Compound 2, 4-[2-((R)-1-Phenyl-ethylamino)-benzooxazol-6-yloxy]-pyridine-2-carboxylic acid methylamide] | 100% | 80% | – | 63% | – | – | – | – | – | –
CNC(=O)c1cc(Oc2ccc3nc(NCC4COc5ccccc5O4)sc3c2)ccn1 (centres unmarked) [Compound 144] | – | – | – | – | 100% | 38% | 12% | 41% | – | –
Cc1cc(Oc2ccc3nc(NCC4CCCCC4)sc3c2)ccn1 [Example 202] | – | – | – | – | 100% | 32% | 19% | 17% | – | –
c1cncc(CNc2nc3ccc(Oc4ccnc5ccccc45)cc3s2)c1 [Example 254, N-(pyridin-3-ylmethyl)-6-(quinolin-4-yloxy)benzo[d]thiazol-2-amine] | – | – | – | – | 100% | 98% | 0% | 100% | – | –
CC(C)C[C@@H](CO)Nc1nc2ccc(Oc3ccnc(-c4cnn(C)c4)c3)cc2s1 [Example 358, (S)-4-methyl-2-(6-(2-(1-methyl-1H-pyrazol-4-yl)pyridin-4-yloxy)benzo[d]thiazol-2-ylamino)pentan-1-ol] | 100% | – | 99% | – | – | – | – | – | 100% | 100%
CNC(=O)c1cc(Oc2cc(Cl)c3nc(NCC4CCCCC4)sc3c2)ccn1 [Example 375, 4-(4-chloro-2-(cyclohexylmethylamino)benzo[d]thiazol-6-yloxy)-N-methylpicolinamide] | 100% | – | 38% | – | – | – | – | – | 97% | 19%
CNC(=O)c1cc(Oc2ccc3nc(N[C@H]4CCCN(C(=O)c5ccccc5)C4)sc3c2)ccn1 [Example 336, (S)-4-(2-(1-benzoylpiperidin-3-ylamino)benzo[d]thiazol-6-yloxy)-N-methylpicolinamide] | 94% | – | 14% | – | – | – | – | – | 23% | 17%
CNC(=O)c1cc(Oc2ccc3nc(N[C@H]4CCCN(C(C)=O)C4)sc3c2)ccn1 [Example 304, (S)-4-(2-(1-acetylpiperidin-3-ylamino)benzo[d]thiazol-6-yloxy)-N-methylpicolinamide] | 100% | – | 18% | – | – | – | – | – | 9% | 23%
CNC(=O)c1cc(Oc2ccc3nc(NC4C[C@@H]5CC[C@H]4C5)sc3c2)ccn1 (some centres unmarked) [Compound 140] | – | – | – | – | 100% | 27% | 100% | 25% | – | –
CNC(=O)c1cc(Oc2ccc3nc(NC4CCC4)oc3c2)ccn1 [Compound 22, 4-(2-Cyclobutylamino-benzooxazol-6-yloxy)-pyridine-2-carboxylic acid methylamide] | 21% | – | 0% | – | 100% | 6% | 21% | 36% | – | –
COc1cc2nccc(Oc3ccc4nc(Nc5ccc6c(c5)OCCO6)oc4c3)c2cc1OC [Compound 4, (2,3-Dihydro-benzo[1,4]dioxin-6-yl)-[6-(6,7-dimethoxy-quinolin-4-yloxy)-benzooxazol-2-yl]-amine] | 100% | 91% | – | 100% | – | – | – | – | – | –
CNC(=O)c1cc(Oc2ccc3nc(Nc4cccc(CCN5CCOCC5)c4)oc3c2)ccn1 [Compound 74, 4-{2-[3-(2-Morpholin-4-yl-ethyl)-phenylamino]-benzo-oxazol-6-yloxy}-pyridine-2-carboxylic acid methylamide] | 100% | – | 31% | 14% | – | – | – | – | 34% | –
